Laboratory results as given in patent US10179174B2, “Method for inducing an immune response and formulations thereof” (priority 2011, dated 2019).

Key:
[1] = tested on: CD4; details: literature; cited from earlier work
[2] = tested on: HSV-1 virus; details: Peptide J alone; Taylor et al.; cited from earlier work
[3] = tested on: BM cells (iDCs); assay: Flow cytometry phenotyping of BM cells (iDCs) incubated with LEAPS heteroconjugates or LPS; type: cell-based, BALB/c mice; details: 14.5 micromoles per well (about 10^6 cells), incubation 24, 48 or 72 hours

DGQEEKAGVVSTGLI (H-DGQEEKAGVVSTGLI-NH2) [CEL-1000, ICBL peptide derived from the β-chain of MHC II]
binding to CD4 [1]: bind to CD4

DLLKNGERIEKVE [J Peptide, ICBL derived from amino acids 38-50 of the β-2-microglobulin chain of the MHC I molecule]
protection against infection [2]: does not induce protection against infection

lipopolysaccharide [LPS]
upregulation for CD80, CD86 and MHC II compared to untreated cells [3]: significant upregulation
